Measured values as given in ChEMBL document CHEMBL4145553, “Design, synthesis, and biological evaluation of novel amide and hydrazide based thioether analogs targeting Histone deacteylase (HDAC) enzymes” (Eur J Med Chem, 2018).

What was measured:
OVCAR-5 = assay: Growth of human OVCAR5 cells at 10 uM incubated for 48 hrs by sulforhodamine B assay relative to control; settings: OVCAR-5, 48 h
UACC-62 = assay: Growth of human UACC62 cells at 10 uM incubated for 48 hrs by sulforhodamine B assay relative to control; settings: UACC-62, 48 h
KM12 = assay: Growth of human KM12 cells at 10 uM incubated for 48 hrs by sulforhodamine B assay relative to control; settings: KM12, 48 h
PC-3 = assay: Growth inhibition of human PC3 cells at 10 uM incubated for 48 hrs by sulforhodamine B assay relative to control; format: functional; settings: PC-3, 48 h, values are per cent of control
RXF 393 = assay: Growth inhibition of human RXF393 cells at 10 uM incubated for 48 hrs by sulforhodamine B assay relative to control; format: functional; settings: RXF 393, 48 h, values are per cent of control
U-251 = assay: Growth of human U251 cells at 10 uM incubated for 48 hrs by sulforhodamine B assay relative to control; settings: U-251, 48 h
M14 = assay: Growth of human M14 cells at 10 uM incubated for 48 hrs by sulforhodamine B assay relative to control; settings: M14, 48 h
K562 = assay: Growth of human K562 cells at 10 uM incubated for 48 hrs by sulforhodamine B assay relative to control; settings: K562, 48 h
MDA-MB-435 = assay: Growth of human MDA-MB-435 cells at 10 uM incubated for 48 hrs by sulforhodamine B assay relative to control; settings: MDA-MB-435, 48 h
786-0 = assay: Growth inhibition of human 786-0 cells at 10 uM incubated for 48 hrs by sulforhodamine B assay relative to control; format: functional; settings: 786-0, 48 h, values are per cent of control
CCRF-CEM = assay: Growth of human CCRF-CEM cells at 10 uM incubated for 48 hrs by sulforhodamine B assay relative to control
HCC 2998 = assay: Growth of human HCC2998 cells at 10 uM incubated for 48 hrs by sulforhodamine B assay relative to control; settings: HCC 2998, 48 h
SK-MEL-5 = assay: Growth of human SK-MEL-5 cells at 10 uM incubated for 48 hrs by sulforhodamine B assay relative to control; settings: SK-MEL-5, 48 h
IGROV-1 = assay: Growth of human IGROV1 cells at 10 uM incubated for 48 hrs by sulforhodamine B assay relative to control; settings: IGROV-1, 48 h
A549 = assay: Growth of human A549/ATCC cells at 10 uM incubated for 48 hrs by sulforhodamine B assay relative to control; settings: A549, 48 h
SF-295 = assay: Growth of human SF295 cells at 10 uM incubated for 48 hrs by sulforhodamine B assay relative to control; settings: SF-295, 48 h
HCT-15 = assay: Growth of human HCT15 cells at 10 uM incubated for 48 hrs by sulforhodamine B assay relative to control; settings: HCT-15, 48 h
SK-MEL-2 = assay: Growth of human SK-MEL-2 cells at 10 uM incubated for 48 hrs by sulforhodamine B assay relative to control; settings: SK-MEL-2, 48 h
OVCAR-4 = assay: Growth of human OVCAR4 cells at 10 uM incubated for 48 hrs by sulforhodamine B assay relative to control; settings: OVCAR-4, 48 h
OVCAR-8 = assay: Growth of human OVCAR8 cells at 10 uM incubated for 48 hrs by sulforhodamine B assay relative to control; settings: OVCAR-8, 48 h
NCI-H23 = assay: Growth inhibition of human NCI-H23 cells at 10 uM incubated for 48 hrs by sulforhodamine B assay relative to control; format: functional; settings: NCI-H23, 48 h, values are per cent of control
MOLT-4 = assay: Growth of human MOLT4 cells at 10 uM incubated for 48 hrs by sulforhodamine B assay relative to control; settings: MOLT-4, 48 h
NCI-H226 = assay: Growth inhibition of human NCI-H226 cells at 10 uM incubated for 48 hrs by sulforhodamine B assay relative to control; format: functional; settings: NCI-H226, 48 h, values are per cent of control
MDA-MB-468 = assay: Growth inhibition of human MDA-MB-468 cells at 10 uM incubated for 48 hrs by sulforhodamine B assay relative to control; format: functional; settings: MDA-MB-468, 48 h, values are per cent of control
Hs-578T = assay: Growth inhibition of human Hs 578T cells at 10 uM incubated for 48 hrs by sulforhodamine B assay relative to control; format: functional; settings: values are per cent of control
COLO 205 = assay: Growth of human COLO205 cells at 10 uM incubated for 48 hrs by sulforhodamine B assay relative to control; settings: COLO 205, 48 h

SMILES	growth, % of control at 10 µM (OVCAR-5)	growth, % of control at 10 µM (UACC-62)	growth, % of control at 10 µM (KM12)	growth, % of control at 10 µM (PC-3)	growth, % of control at 10 µM (RXF 393)	growth, % of control at 10 µM (U-251)	growth, % of control at 10 µM (M14)	growth, % of control at 10 µM (K562)	growth, % of control at 10 µM (MDA-MB-435)	growth, % of control at 10 µM (786-0)	growth, % of control at 10 µM (CCRF-CEM)	growth, % of control at 10 µM (HCC 2998)	growth, % of control at 10 µM (SK-MEL-5)	growth, % of control at 10 µM (IGROV-1)	growth, % of control at 10 µM (A549)	growth, % of control at 10 µM (SF-295)	growth, % of control at 10 µM (HCT-15)	growth, % of control at 10 µM (SK-MEL-2)	growth, % of control at 10 µM (OVCAR-4)	growth, % of control at 10 µM (OVCAR-8)	other results
CCS/C(Nc1ccccc1)=C(\C#N)C(=O)Nc1ccc(C)cc1	101%	80.3%	96.6%	97%	103%	96.6%	112%	80.1%	102%	87.1%	85.8%	94.8%	93.6%	99%	84.5%	95.7%	94.8%	85.3%	101%	96%	growth, % of control at 10 µM (NCI-H23): 94%; growth, % of control at 10 µM (MOLT-4): 56.6%; growth, % of control at 10 µM (NCI-H226): 95%; growth, % of control at 10 µM (MDA-MB-468): 103%; growth, % of control at 10 µM (Hs-578T): 98.9%; growth, % of control at 10 µM (COLO 205): 117%
CC(C)(C)S/C(Nc1ccccc1)=C(\C#N)C(=O)Nc1ccccc1	100%	94.9%	114%	95.2%	101%	92%	100%	95.9%	104%	94.3%	86.4%	106%	102%	108%	88.4%	94.4%	101%	94%	100%	99.8%	growth, % of control at 10 µM (NCI-H23): 99.8%; growth, % of control at 10 µM (MOLT-4): 69.7%; growth, % of control at 10 µM (NCI-H226): 88.9%; growth, % of control at 10 µM (MDA-MB-468): 92.8%; growth, % of control at 10 µM (Hs-578T): 99.6%; growth, % of control at 10 µM (COLO 205): 102%
CCS/C(Nc1ccccc1)=C(\C#N)C(=O)N/N=C\c1ccco1	106%	97.7%	104%	99.4%	104%	94%	99.2%	97.8%	105%	100%	91.2%	107%	101%	105%	86.7%	101%	106%	94.3%	106%	92.1%	growth, % of control at 10 µM (NCI-H23): 96.5%; growth, % of control at 10 µM (MOLT-4): 76.3%; growth, % of control at 10 µM (NCI-H226): 95.2%; growth, % of control at 10 µM (MDA-MB-468): 91.4%; growth, % of control at 10 µM (Hs-578T): 101%; growth, % of control at 10 µM (COLO 205): 103%
